Data: patent publication US20110206607A1, “IMIDAZOL (1,2-A)PYRIDINES AND RELATED COMPOUNDS WITH ACTIVITY AT CANNABINOID CB2 RECEPTORS” (priority 2007, published 2011)

Target: T1, human CB2 (Homo sapiens, UniProt P34972)
T1 construct: expressed in transfected cells; host or cells: HEK-293T (transient transfection, membrane preparation)
Assay: CB2 receptor binding assay, block of [3H]-CP 55,940 binding
Conditions: membranes of HEK-293T cells transfected with human CB2 cDNA; 1.5 nM [3H]-CP 55,940
Protocol: Membrane preparation—HEK-293T cells were cultured according to ATCC (Manassas, Va.) guidelines and transfected with human CB2 cDNA (SEQ ID NO:1) (Genbank X74328), operably linked to the SV40 promoter, using Polyfect (Qiagen, Valencia, Calif.) or Fugene (Roche, Nutley, N.J.) according to manufacturer's instructions. 48 h after transfection cells were harvested in ice cold membrane buffer (20 mM HEPES, 6 mM MgCl2, 1 mM EDTA, pH 7.2) using a cell scraper. Cells were transferred to a nitrogen cavitation chamber and a pressure of […] was applied for 30 min. The pressure was released and the cell debris was collected and centrifuged at 1000 g at 4° C. for 10 min. The supernatant was collected and the spin was repeated until the supernatant was free of precipitate. Membranes were then pelleted by centrifugation at 12.000 g at 4° C. for 20 min. Membranes were resuspended in an appropriate amount of membrane buffer. The membrane concentration was determined using a BioRad (Hercules, Calif.) protein assay dye reagent according to manufacturer's instructions. Membranes were diluted to 1 mg/ml and aliquots snap-frozen in liquid nitrogen and store at −80° C.
Binding assay—0.5-10 ng of membranes were incubated in binding buffer (50 mM Tris, 0.5 mM EDTA, 0.1% BSA, pH 7.4) in the presence of 1.5 nM radioligand ([^3H]-CP 55,940 Perkin Elmer) and varying concentrations of ligands (total volume 100 μL in a 96 well plate). Membranes were filtered onto a 96 well GF/B filterplate (Packard Bioscience, Shelton, Conn.) and washed with […] wash buffer (25 mM HEPES, 1 mM CaCl2, 5 mM MgCl2, 0.25M NaCl) using a Filtermate 196 Harvester (Packard Instruments, Downers Grove, Ill.). The filter plates were dried under a heat lamp before addition of 50 μL of scintillation fluid to each well (Microscint 20, Packard, Shelton, Conn.). Plates were counted on a Topcount NXT (Packard, Shelton, Conn.).
Data Analysis—Graphs were plotted and KD values were determined by nonlinear regression analysis using Prism software (GraphPad version 4.0, San Diego, Calif., USA).

T1 sequence (P34972 whole entry): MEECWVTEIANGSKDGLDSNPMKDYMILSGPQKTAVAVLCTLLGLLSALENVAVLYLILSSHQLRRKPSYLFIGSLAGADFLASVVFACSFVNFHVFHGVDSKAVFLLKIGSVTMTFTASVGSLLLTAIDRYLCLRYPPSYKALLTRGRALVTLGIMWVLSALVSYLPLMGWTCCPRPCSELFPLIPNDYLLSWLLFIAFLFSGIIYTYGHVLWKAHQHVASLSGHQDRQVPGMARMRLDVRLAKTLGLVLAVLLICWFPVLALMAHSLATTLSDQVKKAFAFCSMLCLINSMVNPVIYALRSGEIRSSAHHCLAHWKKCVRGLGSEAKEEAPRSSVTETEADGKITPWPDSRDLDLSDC

Compound | pKi | Ki [nM]
CCc1cccc2nc(-c3c(F)cccc3Cl)c(Nc3ccc4c(c3)OCCO4)n12 [CR-45] | 7.4 | –
Cc1ccn2c(Nc3ccc4c(c3)OCCO4)c(-c3c(F)cccc3Cl)nc2c1 [CR-55] | 7.3 | –
COc1cccc2nc(-c3c(F)ccc(OCF)c3Cl)c(Nc3ccc4c(c3)OCCO4)n12 [CR-11] | 9.1 | –
Oc1cc(F)c(-c2nc3cccc(OCCF)n3c2Nc2ccc3c(c2)OCCO3)c(F)c1 [CR-6] | 7.6 | –
Cc1ccc2nc(-c3c(Cl)cccc3Cl)c(Nc3ccc4c(c3)OCCO4)n2c1 [CR-39] | 7.6 | –
Fc1cccc(Cl)c1-c1nc2ncccn2c1Nc1ccc2c(c1)OCCO2 [CR-46] | 7.4 | –
COc1cccc2nc(-c3c(F)ccc(OCCF)c3Cl)c(Nc3ccc4c(c3)OCCO4)n12 [CR-9] | 9.3 | –
Cc1ccc2nc(-c3c(F)cccc3F)c(Nc3ccc4c(c3)OCCO4)n2c1 [CR-48] | 7.4 | –
FCCOc1cncc(F)c1-c1nc2cccc(OCCF)n2c1Nc1ccc2c(c1)OCCO2 [CR-8] | 6.6 | –
Cc1cncc2nc(-c3c(F)cccc3Cl)c(Nc3ccc4c(c3)OCCO4)n12 [CR-58] | 7.2 | –
COc1cccc2nc(-c3c(F)ccc(OCCF)c3F)c(Nc3ccc4c(c3)OCCO4)n12 [CR-12] | 8.8 | –
CNc1cccc2nc(-c3c(F)cccc3Cl)c(Nc3ccc4c(c3)OCCO4)n12 [CR-43] | 7.5 | –
COc1cnc2nc(-c3c(F)cccc3Cl)c(Nc3ccc4c(c3)OCCO4)n2c1 [CR-31] | 7.8 | –
COc1cccc2nc(-c3c(Cl)cccc3Cl)c(Nc3ccc4c(c3)OCCO4)n12 [CR-18] | 8.4 | –
Cc1cccn2c(Nc3ccc4c(c3)OCCO4)c(-c3c(F)cccc3Cl)nc12 [CR-50] | 7.3 | –
Cc1cc(OCCF)cc(C)c1-c1nc2cccc(F)n2c1Nc1ccc2c(c1)OCCO2 [CR-36] | 7.7 | –

Compound | pKi | Ki [nM]
Cc1ccc2nc(-c3c(F)cccc3Cl)c(Nc3ccc4c(c3)OCCO4)n2c1 [CR-42] | 7.5 | –
Cc1cccc2nc(-c3c(Cl)cccc3Cl)c(Nc3ccc4c(c3)OCCO4)n12 [CR-32] | 7.8 | –
Oc1cc(Cl)c(-c2nc3cccc(OCCF)n3c2Nc2ccc3c(c2)OCCO3)c(Cl)c1 [CR-35] | 7.8 | –
Cc1ccn2c(Nc3ccc4c(c3)OCCO4)c(-c3ccc(F)nc3)nc2c1 [CR-54] | 5.2 | –
COc1cccc2nc(-c3c(F)cc(OCCF)cc3F)c(Nc3ccc4c(c3)OCCO4)n12 [CR-17] | 8.5 | –
CC(C)Oc1cccc2nc(-c3c(F)cccc3Cl)c(Nc3ccc4c(c3)OCCO4)n12 [CR-29] | 7.9 | –
COc1cccc2nc(-c3c(Cl)cncc3Cl)c(Nc3ccc4c(c3)OCCO4)n12 [CR-20] | 8.4 | –
COc1cccc2nc(-c3c(F)ccc(OCF)c3F)c(Nc3ccc4c(c3)OCCO4)n12 [CR-1] | 9.5 | –
Cc1cccc(C)c1-c1nc2ccccn2c1Nc1ccc2c(c1)OCCO2 [CR-51] | 7.3 | –
COc1cccc2nc(-c3c(Cl)ncnc3Cl)c(Nc3ccc4c(c3)OCCO4)n12 [CR-22] | 8.2 | –
Fc1cccc(F)c1-c1nc2ccccn2c1Nc1ccc2c(c1)OCCO2 [CR-56] | 7.3 | –
FCCOc1cccc2nc(-c3c(F)cccc3Cl)c(Nc3ccc4c(c3)OCCO4)n12 [CR-37] | 7.7 | –
Cc1ccc2nc(-c3cccc(F)n3)c(Nc3ccc4c(c3)OCCO4)n2c1 [CR-59] | 7.1 | –
COc1cccc2nc(-c3c(F)cc(O)cc3F)c(Nc3ccc4c(c3)OCCO4)n12 [CR-15] | 8.6 | –
Cc1cc(O)cc(C)c1-c1nc2ccc(F)cn2c1Nc1ccc2c(c1)OCCO2 [CR-33] | 7.8 | –

Continued, values first:

pKi | Ki [nM] | Compound
5.7 | – | COc1cc(-c2nc3ccccn3c2Nc2ccc3c(c2)OCCO3)cc(F)c1O [CR-93]
6.5 | – | COc1cc(-c2nc3cccc(C)n3c2Nc2ccc3c(c2)OCCO3)ccc1O [CR-97]
6.7 | – | COc1cc(O)ccc1-c1nc2ccccn2c1Nc1ccc2c(c1)OCCO2 [CR-79]
6.0 | – | Cc1cccc2nc(-c3c(F)cccc3Cl)c(N(C)c3ccc4c(c3)OCCO4)n12 [CR-124]
6.7 | – | Fc1cccc(Cl)c1-c1nc2ccccn2c1Nc1ccc2c(c1)OCO2 [CR-128]
6.3 | – | Fc1cccnc1-c1nc2ccccn2c1Nc1ccc2c(c1)OCCO2 [CR-113]
5.7 | – | Cc1ccn2c(Nc3ccc4c(c3)OCCO4)c(-c3ncccc3F)nc2c1 [CR-106]
5.6 | – | COc1cccc(OC)c1-c1nc2ccncn2c1Nc1ccc2c(c1)OCCO2 [CR-90]
7.0 | – | COc1ccnc2nc(-c3c(F)cc(OCCF)cc3F)c(Nc3ccc4c(c3)OCCO4)n12 [CR-61]
6.5 | – | COc1cccc(OC)c1-c1nc2ccc(C)cn2c1Nc1ccc2c(c1)OCCO2 [CR-100]
6.6 | – | COc1cc(-c2nc3cnccn3c2Nc2ccc3c(c2)OCCO3)cc(F)c1O [CR-91]
– | 5.01 | COc1cccc2nc(-c3c(C)cc(OCC[18F])cc3C)c(Nc3ccc4c(c3)OCCO4)n12 [CR-132]
6.5 | – | Cc1cccn2c(Nc3ccc4c(c3)OCCO4)c(-c3ccccn3)nc12 [CR-101]
6.7 | – | Cc1cn2c(Nc3ccc4c(c3)OCCO4)c(-c3c(F)cccc3Cl)nc2cn1 [CR-80]
6.8 | – | COc1cc(-c2nc3ncccn3c2Nc2ccc3c(c2)OCCO3)ccc1O [CR-70]
7.0 | – | Fc1cccc(-c2nc3ccccn3c2Nc2ccc3c(c2)OCCO3)n1 [CR-63]
6.3 | – | COc1cccc2nc(-c3c(F)cccc3Cl)c(NC(=O)Nc3ccc4c(c3)OCCO4)n12 [CR-109]
6.2 | – | c1ccc(-c2nc3ncccn3c2Nc2ccc3c(c2)OCCO3)nc1 [CR-115]
– | 1.58 | COc1cccc2nc(-c3c(F)ccc(OCC[18F])c3F)c(Nc3ccc4c(c3)OCCO4)n12 [CR-133]
6.0 | – | COc1cccc(OC)c1-c1nc2ncccn2c1Nc1ccc2c(c1)OCCO2 [CR-121]
6.6 | – | Fc1cccc(F)c1-c1nc2cnccn2c1Nc1ccc2c(c1)OCCO2 [CR-92]
– | 1 | COc1cccc2nc(-c3c(F)ccc(OC[18F])c3Cl)c(Nc3ccc4c(c3)OCCO4)n12 [CR-134]
5.9 | – | COc1cccc(OC)c1-c1nc2cc(C)ccn2c1Nc1ccc2c(c1)OCCO2 [CR-126]

pKi | Ki [nM] | Compound
6.4 | – | Cc1cccn2c(Nc3ccc4c(c3)OCO4)c(-c3c(F)cccc3Cl)nc12 [CR-129]
9.5 | – | COc1cccc2nc(-c3c(C)cc(OC[18F])cc3C)c(Nc3ccc4c(c3)OCCO4)n12 [CR-136]
6.9 | – | COc1ccc2nc(-c3c(F)cccc3Cl)c(Nc3ccc4c(c3)OCCO4)n2c1OC [CR-67]
8.3 | – | COc1cccc2nc(-c3c(F)cc(O)cc3Cl)c(Nc3ccc4c(c3)OCCO4)n12 [CR-138]
5.4 | – | Fc1ncccc1-c1nc2cnccn2c1Nc1ccc2c(c1)OCCO2 [CR-78]
5.7 | – | Fc1ccc(-c2nc3ccccn3c2Nc2ccc3c(c2)OCCO3)cn1 [CR-110]
6.3 | – | COc1cc(O)ccc1-c1nc2ncccn2c1Nc1ccc2c(c1)OCCO2 [CR-111]
6.0 | – | Fc1cccc(Cl)c1-c1nc2cccc(C(F)(F)F)n2c1Nc1ccc2c(c1)OCCO2 [CR-122]
6.5 | – | Cc1ccn2c(Nc3ccc4c(c3)OCCO4)c(-c3cccc(F)n3)nc2c1 [CR-99]
6.3 | – | COc1ccnc2nc(-c3c(C)cc(O)cc3C)c(Nc3ccc4c(c3)OCCO4)n12 [CR-108]
6.8 | – | Cc1cccc2nc(-c3ccc(OCCF)c(O)c3)c(Nc3ccc4c(c3)OCCO4)n12 [CR-69]
6.9 | – | COc1ccc2nc(-c3c(Cl)cncc3Cl)c(Nc3ccc4c(c3)OCCO4)n2c1 [CR-66]
6.9 | – | Cc1ccn2c(Nc3ccc4c(c3)OCCO4)c(-c3c(Cl)cccc3Cl)nc2c1 [CR-68]
6.5 | – | COc1cc(-c2nc3ccc(C)cn3c2Nc2ccc3c(c2)OCCO3)cc(F)c1O [CR-96]
6.3 | – | COc1cccc(F)c1-c1nc2ncccn2c1Nc1ccc2c(c1)OCCO2 [CR-112]
6.6 | – | COc1cc(-c2nc3cccc(C)n3c2Nc2ccc3c(c2)OCCO3)cc(F)c1O [CR-95]
6.7 | – | Cc1cccc(C)c1-c1nc2cnccn2c1Nc1ccc2c(c1)OCCO2 [CR-82]
7.0 | – | CCC(C)Oc1cccc2nc(-c3c(F)cccc3Cl)c(Nc3ccc4c(c3)OCCO4)n12 (stereo not shown) [CR-62]
6.4 | – | Fc1cccc(Cl)c1-c1nc2cnccn2c1Nc1ccc2c(c1)OCCO2 [CR-103]
5.7 | – | COc1cccc2nc(-c3c(F)cccc3Cl)c(NC(=O)c3ccc4c(c3)OCCO4)n12 [CR-117]
6.0 | – | COc1cccc(OC)c1-c1nc2c(C)cccn2c1Nc1ccc2c(c1)OCCO2 [CR-123]
5.2 | – | Fc1cccnc1-c1nc2cnccn2c1Nc1ccc2c(c1)OCCO2 [CR-76]
